Measurements from patent US20050192243A1, “Neuromuscular blocking agents and antagonists thereof” (priority 2003, published 2005).

Tests used:
Rhesus monkeys [1] = experiment: Recovery of twitch response from GW 280430A neuromuscular block with or without cysteine-like antagonist; format: in vivo
Protocol: (§1) Rhesus monkeys were anesthetized with ketamine (5 mg/Kg) and thiopental (5 mg/Kg) given intramuscularly or intravenously. Anesthesia was maintained with a mixture of halothane (1.5%), nitrous oxide (60%) and oxygen (40%). The common peroneal nerve was stimulated supramaximally with square wave pulses of 0.2 m sec duration at a rate of 0.15 Hz. Twitch contractions were recorded via the tendon of the extensor digitorum muscle.
In all animals, the trachea was intubated and ventilation was controlled at 12-15 ml/kg, 18-24 breaths per minute. A peripheral vein and artery were cannulated for drug administration and for recording or arterial pressure, respectively.
Rhesus monkeys were anesthetized and treated with a halofumarate neuromuscular blocking agent as described in Example 1.
Several tests were generally run (#1, #2, #3, etc.) with time in between each test so that the animal could recover.

Rhesus monkeys [2] = tested on: Rhesus monkeys
Protocol: as §1, with “ketainine” for “ketamine”
In all animals, the trachea was intubated and ventilation was controlled at 12-15 ml/kg, 18-24 breaths per minute. A peripheral vein and artery were cannulated for drug administration and for recording of arterial pressure, respectively. A dosage of 0.1 mg/kg of the 353044 intermediate duration halofumarate neuromuscular blocking agent was administered intravenously. The 353044 intermediate duration halofumarate neuromuscular blocking agent has the following structure, wherein X is Cl. [drawing 11]
For comparison, 0.5 mg/kg of the ultra-short 280430A halofumarate neuromuscular blocking agent was administered to a separate set of animals. […] Animals that had received the 353044 intermediate duration halofumarate neuromuscular blocking agent, then received a combination of […] 10 mg/kg glutathione.

Rhesus monkeys [3] = conditions: GW 280430A-treated animals
[4] = 5 mg/kg antagonist after GW 280430A, FIG. 4, FIG. 5
[5] = Buck 13.2, Baseline (430A, no cysteine)
[6] = Count 13.1 kg, #3, 0.2 mg/kg 430A alone
[7] = Impy 12.5 kg, #1, 0.05 mg/kg 430A alone
[8] = Impy 12.5 kg, #3, 0.05 mg/kg 430A alone
[9] = Means of Skye, Impy & Count, Baseline (430A, no cysteine)
[10] = Means of Skye, Impy and Buck, Baseline (430A, no cysteine)
[11] = Morgan 12.4 kg, #1, 0.05 mg/kg 430A alone
[12] = Morgan 12.4 kg, #2, 0.01 mg/kg 430A alone
[13] = Skye 11.6 kg, Baseline (430A, no cysteine)
[14] = Skye 12.1 kg, #1, 0.05 mg/kg 430A alone
[15] = Skye 12.1 kg, #3, 0.05 mg/kg 430A alone
[16] = #4 (after 3 administrations of 430A), 0.05 mg/kg 430A & cysteine 5 mg/kg
[17] = #4 (after 3 administrations of 430A), 0.05 mg/kg 430A & cysteine 10 mg/kg
[18] = Buck 13.2, 0.2 mg/kg 430A & cysteine 10.0 mg/kg
[19] = Count 13.1 kg, #4, 0.2 mg/kg 430A & cysteine 4 mg/kg
[20] = Impy 12.5 kg, #2, 0.05 mg/kg 430A & cysteine 5 mg/kg
[21] = Means of Skye, Impy & Count, 0.05 mg/kg 430A & cysteine 4 or 5 mg/kg
[22] = Means of Skye, Impy and Buck, 430A & Cysteine 10 mg/kg
[23] = Morgan 12.4 kg, #3, 0.1 mg/kg 430A & cysteine 20 mg/kg
[24] = Skye 11.6 kg, 0.2 mg/kg 430A & cysteine 10.0 mg/kg
[25] = Skye 12.1 kg, #2, 0.05 mg/kg 430A & cysteine 2 mg/kg

With `CC(=O)N[C@@H](CS)C(=O)O` [N-acetylcysteine, reference compound] the “time to complete reversal of the block in neuromuscular activity after administration” value (“time to complete reversal of the block” below) (Rhesus monkeys [1]; [4]) was at most 165 s.

Compound `COc1cc2c(cc1OC)[C@H](c1cc(OC)c(OC)c(OC)c1)[N@@+](C)(CCCOC(=O)/C=C(\Cl)C(=O)OCCC[N@+]1(C)CCc3cc(OC)c(OC)cc3[C@H]1Cc1cc(OC)c(OC)c(OC)c1)CC2.[Cl-].[Cl-]` [GW 280430A, (Z)-2-Chloro-4-{3-[(1S,2R)-6,7-dimethoxy-2-methyl-1-(3,4,5-trimethoxyphenyl)-1,2,3,4-tetrahydro-2-isoquinolinio]propyl}-1-{3{(1R,2S)-6,7-dimethoxy-2-methyl-1-[(3,4,5-trimethoxyphenyl)methyl]-1,2,3,4-tetrahydro-2-isoquinolinio}propyl}-2-butenedioate dichloride] has a 25-75% recovery interval (Rhesus monkeys [1]; [5]) of 54 s, a Recovery 5-95% (Rhesus monkeys [1]; [5]) of 114 s and a time to 5% twitch recovery (Rhesus monkeys [1]; [5]) of 12 s. For the same compound, the time to 25% twitch recovery (Rhesus monkeys [1]; [5]) was 48 s, the time to 75% twitch recovery (Rhesus monkeys [1]; [5]) was 102 s and the time to 95% twitch recovery (Rhesus monkeys [1]; [5]) was 126 s. The “Recovery 5%” value (Rhesus monkeys [1]; [6]) was 9 s, the “Recovery 5-95%” value (Rhesus monkeys [1]; [6]) was 75 s and the “Recovery 25%” value (Rhesus monkeys [1]; [6]) was 24 s. For the same compound, the “Recovery 25-75%” value (Rhesus monkeys [1]; [6]) was 33 s, the “Recovery 75%” value (Rhesus monkeys [1]; [6]) was 57 s and the “Recovery 95%” value (Rhesus monkeys [1]; [6]) was 84 s. The “Recovery 5%” value (Rhesus monkeys [1]; [7]) was 30 s, the “Recovery 5-95%” value (Rhesus monkeys [1]; [7]) was 141 s and the “Recovery 25%” value (Rhesus monkeys [1]; [7]) was 63 s. The “Recovery 25-75%” value (Rhesus monkeys [1]; [7]) was 57 s, the “Recovery 75%” value (Rhesus monkeys [1]; [7]) was 120 s and the “Recovery 95%” value (Rhesus monkeys [1]; [7]) was 171 s. The “Recovery 75%” value (Rhesus monkeys [1]; [8]) was 45 s, the “Recovery 95%” value (Rhesus monkeys [1]; [8]) was 78 s and the 25-75% recovery interval (Rhesus monkeys [1]; [9]) was 75 s. For the same compound, the Recovery 5-95% (Rhesus monkeys [1]; [9]) was 193 s, the time to 5% twitch recovery (Rhesus monkeys [1]; [9]) was 16 s and the time to 25% twitch recovery (Rhesus monkeys [1]; [9]) was 46 s. The time to 75% twitch recovery (Rhesus monkeys [1]; [9]) was 121 s, the time to 95% twitch recovery (Rhesus monkeys [1]; [9]) was 209 s and the 25-75% recovery interval (Rhesus monkeys [1]; [10]) was 77 s. It also gave a Recovery 5-95% (Rhesus monkeys [1]; [10]) of 193 s, a time to 5% twitch recovery (Rhesus monkeys [1]; [10]) of 22 s and a time to 25% twitch recovery (Rhesus monkeys [1]; [10]) of 61 s. For the same compound, the time to 75% twitch recovery (Rhesus monkeys [1]; [10]) was 138 s, the time to 95% twitch recovery (Rhesus monkeys [1]; [10]) was 215 s and the “Recovery 25%” value (Rhesus monkeys [1]; [11]) was 40 s. For the same compound, the “Recovery 25-75%” value (Rhesus monkeys [1]; [11]) was 103 s, the “Recovery 75%” value (Rhesus monkeys [1]; [11]) was 143 s and the “Recovery 95%” value (Rhesus monkeys [1]; [11]) was 233 s. For the same compound, the “Recovery 5%” value (Rhesus monkeys [1]; [12]) was 30 s, the “Recovery 5-95%” value (Rhesus monkeys [1]; [12]) was 282 s and the “Recovery 25%” value (Rhesus monkeys [1]; [12]) was 42 s. The “Recovery 25-75%” value (Rhesus monkeys [1]; [12]) was 144 s, the “Recovery 75%” value (Rhesus monkeys [1]; [12]) was 186 s and the “Recovery 95%” value (Rhesus monkeys [1]; [12]) was 312 s. The 25-75% recovery interval (Rhesus monkeys [1]; [13]) was 120 s, the Recovery 5-95% (Rhesus monkeys [1]; [13]) was 324 s and the time to 5% twitch recovery (Rhesus monkeys [1]; [13]) was 24 s. For the same compound, the time to 25% twitch recovery (Rhesus monkeys [1]; [13]) was 72 s, the time to 75% twitch recovery (Rhesus monkeys [1]; [13]) was 192 s and the time to 95% twitch recovery (Rhesus monkeys [1]; [13]) was 348 s. The “Recovery 5%” value (Rhesus monkeys [1]; [14]) was 9 s, the “Recovery 5-95%” value (Rhesus monkeys [1]; [14]) was 363 s and the “Recovery 25%” value (Rhesus monkeys [1]; [14]) was 51 s. The “Recovery 25-75%” value (Rhesus monkeys [1]; [14]) was 135 s, the “Recovery 75%” value (Rhesus monkeys [1]; [14]) was 186 s and the “Recovery 95%” value (Rhesus monkeys [1]; [14]) was 372 s. The “Recovery 25%” value (Rhesus monkeys [1]; [15]) was 143 s, the “Recovery 25-75%” value (Rhesus monkeys [1]; [15]) was 122 s and the “Recovery 75%” value (Rhesus monkeys [1]; [15]) was 265 s. For the same compound, the “Recovery 95%” value (Rhesus monkeys [1]; [15]) was 368 s, the “speed of recovery compared with 353044, with antagonist” value (Rhesus monkeys [2]; 0.50 mg/kg GW 280430A + 5 mg/kg cysteine vs 0.10 mg/kg 353044 + cysteine and glutathione, FIG. 9) was “again faster” and the “speed of recovery compared with 353044, no antagonist” value (Rhesus monkeys [2]; 0.50 mg/kg GW 280430A vs 0.10 mg/kg 353044, FIG. 9 solid lines) was “recovered faster”.

With `N[C@@H](CS)C(=O)O` [cysteine] the “time to complete reversal of the block” value (Rhesus monkeys [1]; 5 mg/kg cysteine after GW 280430A, FIG. 3) was at most 100 s, the 25-75% recovery interval (Rhesus monkeys [1]; [16]) was 63 s and the Recovery 5-95% (Rhesus monkeys [1]; [16]) was 237 s. For the same compound, the time to 5% twitch recovery (Rhesus monkeys [1]; [16]) was 15 s, the time to 25% twitch recovery (Rhesus monkeys [1]; [16]) was 39 s and the time to 75% twitch recovery (Rhesus monkeys [1]; [16]) was 102 s. The time to 95% twitch recovery (Rhesus monkeys [1]; [16]) was 252 s, the 25-75% recovery interval (Rhesus monkeys [1]; [17]) was 15 s and the Recovery 5-95% (Rhesus monkeys [1]; [17]) was 96 s. For the same compound, the time to 5% twitch recovery (Rhesus monkeys [1]; [17]) was 18 s, the time to 25% twitch recovery (Rhesus monkeys [1]; [17]) was 51 s and the time to 75% twitch recovery (Rhesus monkeys [1]; [17]) was 66 s. The time to 95% twitch recovery (Rhesus monkeys [1]; [17]) was 114 s, the 25-75% recovery interval (Rhesus monkeys [1]; [18]) was 2 s and the Recovery 5-95% (Rhesus monkeys [1]; [18]) was 42 s. The time to 5% twitch recovery (Rhesus monkeys [1]; [18]) was 6 s, the time to 25% twitch recovery (Rhesus monkeys [1]; [18]) was 24 s and the time to 75% twitch recovery (Rhesus monkeys [1]; [18]) was 26 s. For the same compound, the time to 95% twitch recovery (Rhesus monkeys [1]; [18]) was 48 s, the “Recovery 5%” value (Rhesus monkeys [1]; [19]) was 9 s and the “Recovery 5-95%” value (Rhesus monkeys [1]; [19]) was 27 s. The “Recovery 25%” value (Rhesus monkeys [1]; [19]) was 15 s, the “Recovery 25-75%” value (Rhesus monkeys [1]; [19]) was 15 s and the “Recovery 75%” value (Rhesus monkeys [1]; [19]) was 30 s. The “Recovery 95%” value (Rhesus monkeys [1]; [19]) was 36 s, the “Recovery 5%” value (Rhesus monkeys [1]; [20]) was 6 s and the “Recovery 5-95%” value (Rhesus monkeys [1]; [20]) was 90 s. For the same compound, the “Recovery 25%” value (Rhesus monkeys [1]; [20]) was 33 s, the “Recovery 25-75%” value (Rhesus monkeys [1]; [20]) was 15 s and the “Recovery 75%” value (Rhesus monkeys [1]; [20]) was 48 s. For the same compound, the “Recovery 95%” value (Rhesus monkeys [1]; [20]) was 96 s, the 25-75% recovery interval (Rhesus monkeys [1]; [21]) was 31 s and the time to 5% twitch recovery (Rhesus monkeys [1]; [21]) was 10 s. It also gave a time to 25% twitch recovery (Rhesus monkeys [1]; [21]) of 29 s, a time to 75% twitch recovery (Rhesus monkeys [1]; [21]) of 60 s and a time to 95% twitch recovery (Rhesus monkeys [1]; [21]) of 125 s. For the same compound, the 25-75% recovery interval (Rhesus monkeys [1]; [22]) was 12 s, the Recovery 5-95% (Rhesus monkeys [1]; [22]) was 76 s and the time to 5% twitch recovery (Rhesus monkeys [1]; [22]) was 10 s. For the same compound, the time to 25% twitch recovery (Rhesus monkeys [1]; [22]) was 31 s, the time to 75% twitch recovery (Rhesus monkeys [1]; [22]) was 43 s and the time to 95% twitch recovery (Rhesus monkeys [1]; [22]) was 86 s. For the same compound, the “Recovery 5%” value (Rhesus monkeys [1]; [23]) was 24 s, the “Recovery 5-95%” value (Rhesus monkeys [1]; [23]) was 144 s and the “Recovery 25%” value (Rhesus monkeys [1]; [23]) was 42 s. The “Recovery 25-75%” value (Rhesus monkeys [1]; [23]) was 24 s, the “Recovery 75%” value (Rhesus monkeys [1]; [23]) was 66 s and the “Recovery 95%” value (Rhesus monkeys [1]; [23]) was 168 s. It also gave a 25-75% recovery interval (Rhesus monkeys [1]; [24]) of 18 s, a Recovery 5-95% (Rhesus monkeys [1]; [24]) of 90 s and a time to 5% twitch recovery (Rhesus monkeys [1]; [24]) of 6 s. The time to 25% twitch recovery (Rhesus monkeys [1]; [24]) was 18 s, the time to 75% twitch recovery (Rhesus monkeys [1]; [24]) was 36 s and the time to 95% twitch recovery (Rhesus monkeys [1]; [24]) was 96 s. For the same compound, the “Recovery 5%” value (Rhesus monkeys [1]; [25]) was 10 s, the “Recovery 5-95%” value (Rhesus monkeys [1]; [25]) was 208 s and the “Recovery 25%” value (Rhesus monkeys [1]; [25]) was 35 s. For the same compound, the “Recovery 25-75%” value (Rhesus monkeys [1]; [25]) was 65 s, the “Recovery 75%” value (Rhesus monkeys [1]; [25]) was 100 s and the “Recovery 95%” value (Rhesus monkeys [1]; [25]) was 218 s. For the same compound, the “side effects at highest dosage tested” value (Rhesus monkeys [3]; cysteine 20 mg/kg) was “no negative side effects” and the “effect on blood pressure or heart rate” value (Rhesus monkeys [3]; cysteine, therapeutic range (5-10 mg/Kg), FIG. 2) was “no significant affect on blood pressure or heart rate”.

With `N[C@@H](CCC(=O)N[C@@H](CS)C(=O)NCC(=O)O)C(=O)O` [glutathione] the “time to complete reversal of the block” value (Rhesus monkeys [1]; [4]) was at most 140 s.
